Experimental data from patent publication US20110152094A1, “Herbicidal compositions comprising flufenacet” (Bayer CropScience AG, priority 2009, published 2011).

Legend:
Format in all cases: in vivo
[1] = test system: HORVW = Hordeum vulgare, winter barley; assay: Greenhouse trial, PE application at different sowing depths (test method 9); conditions: g of AS/ha: (A) 120, (B) 1200, (A)+(B) 120 + 1200
Method: (§1) In the standard design of the test, seeds of various broad-leaved weed and weed grass biotypes (origins) were sown in a 8-13 cm diameter pot filled with natural soil of a standard field soil (loamy silt; non-sterile) and covered with a covering soil layer of about 1 cm. The pots were then cultivated in a greenhouse (12-16 h of light, temperature day 20-22° C., night 15-18° C.) until the time of application. The pots were treated on a laboratory track sprayer with spray liquors comprising the compositions according to the invention, mixtures of the prior art or components used individually. Application of the active compounds or active compound combinations formulated as WG, WP, EC or otherwise was carried out at the appropriate growth stages of the plants. The application rate for the spray application was 100-600 l of water/ha. After the treatment, the plants were returned to the greenhouses.
(§2) About 3 weeks after the application, the soil action or/and foliar action was assessed visually according to a scale of 0-100% in comparison to an untreated comparative group: 0%=no noticeable effect compared to the untreated comparative group; 100%=full effect compared to the untreated comparative group.
(§3) (notes: the term “seeds” also includes vegetative propagation forms such as, for example, rhizome pieces; abbreviations used: h light=hours of illumination, g of AS/ha=gram of active substance per hectare, l/ha=liter per hectare, S=sensitive, R=resistant) • 1. Pre-emergence action against weeds: seeds of various broad-leaved weed and weed grass biotypes (origins) were sown in a 8-13 cm diameter pot filled with natural soil of a standard field soil (loamy silt; non-sterile) and covered with a covering soil layer of about 1 cm. The pots were then cultivated in a greenhouse (12-16 h of light, temperature day 20-22° C., night 15-18° C.) until the time of application. The pots were treated at the BBCH stage 00-10 of the seeds/plants on a laboratory track sprayer with spray liquors comprising the compositions according to the invention, mixtures or components used individually, as WG, WP, EC or other formulations. The application rate for the spray application was 100-600 l of water/ha. After the treatment, the plants were returned to the greenhouses and, when required, treated with fertilizer and watered. • 2. Post-emergence action against weeds: seeds of various broad-leaved weed and weed grass biotypes (origins) were sown in a 8-13 cm diameter pot filled with natural soil of a standard field soil (loamy silt; non-sterile) and covered with a covering soil layer of about 1 cm. The pots were then cultivated in a greenhouse (12-16 h of light, temperature day 20-22° C., night 15-18° C.) until the time of application. The pots were treated at various BBCH stages between 11-25 of the seeds/plants, i.e. generally between two to three weeks after the start of the cultivation, on a laboratory track sprayer with spray liquors comprising the compositions according to the invention, mixtures or components used individually, as WG, WP, EC or other formulations. The application rate for the spray application was 100-600 l of water/ha. After the treatment, the plants were returned to the greenhouses and, when required, treated with fertilizer and watered. • 3. Selective pre-emergence action: seeds of various crop species (origins) were sown in a 8-13 cm diameter pot filled with natural soil of a standard field soil (loamy silt; non-sterile) and covered with a covering soil layer of about 1 cm. The pots were then cultivated in a greenhouse (12-16 h of light, temperature day 20-22° C., night 15-18° C.) until the time of application. The pots were treated at the BBCH stage 00-10 of the seeds/plants on a laboratory track sprayer with spray liquors comprising the compositions according to the invention, mixtures or components used individually, as WG, WP, EC or other formulations. The application rate for the spray application was 100-600 l of water/ha. […]

LOLPE = Lolium perenne = assay: as above; conditions: g of AS/ha: (A) 120, (B) 1200, (A)+(B) 120 + 1200
Method: as §1, §2, §3

STEME = Stellaria media = assay: as above; conditions: g of AS/ha: (A) 120, (B) 1200, (A)+(B) 120 + 1200
Method: as §1, §2, §3

[2] = test system: TRZAW = Triticum aestivum, winter wheat; assay: Greenhouse trial, PE application with different irrigation variations (test method 6); conditions: g of AS/ha: (A) 120, (B) 1200, (A)+(B) 120 + 1200
Method: as §1, §2, §3

AVEFA = Avena fatua = assay: as above; conditions: g of AS/ha: (A) 120, (B) 1200, (A)+(B) 120 + 1200
Method: as §1, §2, §3

[3] = test system: MATCH = Matricaria chamomilla; assay: as above; conditions: g of AS/ha: (A) 120, (B) 1200, (A)+(B) 120 + 1200
Method: as §1, §2, §3

[4] = test system: HORVW = Hordeum vulgare, winter barley; assay: Greenhouse trial, selective pre-emergence (PE) action on crop plant (test method 3); conditions: PE application, g of AS/ha: (A) 90, (B) 1200, (A)+(B) 90 + 1200
Method: as §1
as §2, with “group. […]” for “group.”

[5] = test system: ALOMY resistant (Alopecurus myosuroides); assay: Greenhouse trial, PE application on resistant biotypes (test method 8); conditions: resistant biotype, g of AS/ha: (A) 90, (B) 1200, (A)+(B) 90 + 1200
Method: as §1, §2, §3

[6] = test system: ALOMY sensitive (Alopecurus myosuroides); assay: as above; conditions: sensitive biotype, g of AS/ha: (A) 90, (B) 1200, (A)+(B) 90 + 1200
Method: as §1, §2, §3

[7] = test system: MATCH sensitive (Matricaria chamomilla); assay: as above; conditions: sensitive biotype, g of AS/ha: (A) 90, (B) 1200, (A)+(B) 90 + 1200, (C) 10
Method: as §1, §2, §3

[8] = test system: MATCH resistant (Matricaria chamomilla); assay: as above; conditions: resistant biotype, g of AS/ha: (A) 90, (B) 1200, (A)+(B) 90 + 1200, (C) 10
Method: as §1, §2, §3

## CCC(CC)Nc1c([N+](=O)[O-])cc(C)c(C)c1[N+](=O)[O-] [(B) pendimethalin, N-(1-ethylpropyl)-3,4-dimethyl-2,6-dinitrobenzenamine]
[1]; sowing depth 5 mm
  activity on crop plant HORVW, sowing depth 5 mm (visual assessment, scale 0-100% vs untreated): 25%
[1]; sowing depth 20 mm
  activity on crop plant HORVW, sowing depth 20 mm (visual assessment, scale 0-100% vs untreated): 0%
LOLPE = Lolium perenne; sowing depth 5 mm
  activity LOLPE, sowing depth 5 mm (visual assessment, scale 0-100% vs untreated): 30%
LOLPE = Lolium perenne; sowing depth 20 mm
  activity LOLPE, sowing depth 20 mm (visual assessment, scale 0-100% vs untreated): 10%
STEME = Stellaria media; sowing depth 5 mm
  activity STEME, sowing depth 5 mm (visual assessment, scale 0-100% vs untreated): 50%
STEME = Stellaria media; sowing depth 20 mm
  activity STEME, sowing depth 20 mm (visual assessment, scale 0-100% vs untreated): 70%
[2]; irrigation from above
  activity on crop plant TRZAW (visual assessment, scale 0-100% vs untreated): 20%
[2]; irrigation from below
  activity on crop plant TRZAW (visual assessment, scale 0-100% vs untreated): 5%
AVEFA = Avena fatua; irrigation from above
  activity AVEFA (visual assessment, scale 0-100% vs untreated): 5%
AVEFA = Avena fatua; irrigation from below
  activity AVEFA (visual assessment, scale 0-100% vs untreated): 10%
[3]; irrigation from above
  activity MATCH (visual assessment, scale 0-100% vs untreated): 30%
[3]; irrigation from below
  activity MATCH (visual assessment, scale 0-100% vs untreated): 18%
[4]
  activity on crop plant HORVW (visual assessment, scale 0-100% vs untreated): 50%
[5]
  activity ALOMY resistant (visual assessment, scale 0-100% vs untreated): 40%
[6]
  activity ALOMY sensitive (visual assessment, scale 0-100% vs untreated): 30%
[7]
  activity MATCH sensitive (visual assessment, scale 0-100% vs untreated): 10%
[8]
  activity MATCH resistant (visual assessment, scale 0-100% vs untreated): 10%
